In patent US20050171038A1, “Therapeutic combinations” (Agouron Pharmaceuticals, Inc., priority 2004, published 2005):

Assays:
CEM-SS cells = test: Cytotoxicity of the combinations in the XTT dye reduction assay (mock infected CEM-SS cells)
Description: CEM-SS cells were added at 2×10^4 cells per well into 96-well plates containing 1.5-fold or 2.0-fold dilutions of test compounds, and were subsequently infected with HIV-1 RF at a multiplicity of infection of 0.470 or mock infected with medium only. Six days after infection, 50 μl of XTT (1 mg/ml XTT tetrazolium, […] phenazine methosulfate) were added to the wells and the plate was reincubated for four hours. Viability, as determined by the amount of XTT formazan produced, was quantified spectrophotometrically by absorbance at 450 nm. Optical density values were exported to a MacSynergy™ II (3, University of Michigan, Ann Arbor, Mich.) spreadsheet for subsequent analysis.

HIV-1 RF = test: XTT dye reduction combination assay: protection of CEM-SS cells against HIV-1 RF infection, MacSynergy II analysis; assay type: cell-based; details: 95% confidence interval
[1] = in combination with 4,4-difluoro-1-{(2S,3S)-2-hydroxy-3-[(3-hydroxy-2-methylbenzoyl)amino]-4-phenylbutanoyl}-3,3-dimethyl-N-(2,2,2-trifluoroethyl)-L-prolinamide
[2] = in combination with 4,4-difluoro-1-{(2S,3S)-2-hydroxy-3-[(3-hydroxy-2-methylbenzoyl)amino]-4-phenylbutanoyl}-3,3-dimethyl-N-(2,2,2-trifluoroethyl)-L-prolinamide, six days after infection of CEM-SS cells with HIV-1 RF, triplicate plates
[3] = in combination with N-ethyl-4,4-difluoro-1-{(2S,3S)-2-hydroxy-3-[(3-hydroxy-2,5-dimethylbenzoyl)amino]-4-phenylbutanoyl}-3,3-dimethyl-L-prolinamide
[4] = in combination with (4R)-N-allyl-3-{(2S,3S)-2-hydroxy-3-[(3-hydroxy-2-methylbenzoyl)amino]-4-phenylbutanoyl}-5,5-dimethyl-1,3-thiazolidine-4-carboxamide, mean of two or three independent experiments
[5] = in combination with N-ethyl-4,4-difluoro-1-{(2S,3S)-2-hydroxy-3-[(3-hydroxy-2,5-dimethylbenzoyl)amino]-4-phenylbutanoyl}-3,3-dimethyl-L-prolinamide, six days after infection of CEM-SS cells with HIV-1 RF, triplicate plates

Row | Structure (SMILES) | Cytotoxicity (CEM-SS cells; [1]) | Antagonism (volume) (HIV-1 RF; [2]) | Synergy (volume) (HIV-1 RF; [2]) | Cytotoxicity (CEM-SS cells; [3]) | Antagonism (volume) (HIV-1 RF; [4]) | Synergy (volume) (HIV-1 RF; [4]) | Antagonism (volume) (HIV-1 RF; [5]) | Synergy (volume) (HIV-1 RF; [5])
1 | Cc1cccc(C)c1OCC(=O)N[C@@H](Cc1ccccc1)[C@@H](O)C[C@H](Cc1ccccc1)NC(=O)[C@H](C(C)C)N1CCCNC1=O (relative stereo) [Lopinavir, [1S-[1R*,(R*),3R*,4R*]]—N-[4-[[(2,6-dimethyl-phenoxy)acetyl]amino]-3-hydroxy-5-phenyl-1-(phenylmethyl)pentyl]tetrahydro-alpha-(1-methylethyl)-2-oxo-1(2H)-pyrimidineacetamide] | none | 0 μM^2% | 261 μM^2% | – | – | – | – | –
2 | Cc1c(O)cccc1C(=O)N[C@@H](CSc1ccccc1)[C@H](O)CN1C[C@H]2CCCC[C@H]2C[C@H]1C(=O)NC(C)(C)C (relative stereo) [Nelfinavir, [3S-[2(2S*, 3S*),3-alpha,4abeta,8abeta]]-N-(1,1-dimethylethyl)decahydro-2-[2-hydroxy-3-[(3-hydroxy-2-methylbenzoyl)amino]-4-(phenylthio)butyl]-3-isoquinolinecarboxamide mono-methanesulfonate] | none | −0.28 μM^2% | 653 μM^2% | none | −13 μM^2% | 197 μM^2% | 0 μM^2% | 229 μM^2%
3 | CC(C)c1nc(CN(C)C(=O)N[C@H](C(=O)N[C@@H](Cc2ccccc2)C[C@H](O)[C@H](Cc2ccccc2)NC(=O)OCc2cncs2)C(C)C)cs1 (relative stereo) [Ritonavir, 10-hydroxy-2-methyl-5-(1-methylethyl)-1-[2-(1-methylethyl)-4-thiazolyl]-3,6-dioxo-8,11-bis(phenylmethyl)-2,4,7,12-tetraazatridecan-13-oic acid, 5-thiazolylmethyl ester, [5S-(5R*,8R*,10R*,11R*)]] | – | – | – | – | −0.77 μM^2% | 407 μM^2% | – | –
4 | O=C1Nc2ccc(Cl)cc2[C@@](C#CC2CC2)(C(F)(F)F)O1 [Efavirenz, (S)-6-chloro-4-(cyclopropylethynyl)-1,4-dihydro-4-(trifluoromethyl)-2H-3,1-benzoxazin-2-one] | – | – | – | none | −1.1 μM^2% | 130 μM^2% | 0 μM^2% | 78 μM^2%
5 | Cc1ccnc2c1NC(=O)c1cccnc1N2C1CC1 [Nevirapine, 11-cyclopropyl-5,11-dihydro-4-methyl-6H-dipyrido[3,2-b:2′,3′-e][1,4]diazepin-6-one] | none | 0 μM^2% | 270 μM^2% | insignificant | 0 μM^2% | 203 μM^2% | −2.4 μM^2% | 153 μM^2%
6 | CC(C)OC(=O)OCOP(=O)(CO[C@H](C)Cn1cnc2c(N)ncnc21)OCOC(=O)OC(C)C.O=C(O)/C=C/C(=O)O [Tenofovir, 9-[(R)-2-[[bis[[(isopropoxycarbonyl)oxy]methoxy]phosphinyl]methoxy]propyl]adenine fumarate (1:1)] | none | −6.0 μM^2% | 106 μM^2% | insignificant | 0 μM^2% | 125 μM^2% | 0 μM^2% | 14 μM^2%
7 | Cc1cn([C@H]2C[C@H](N=[N+]=[N-])[C@@H](CO)O2)c(=O)[nH]c1=O [Zidovudine, 3′-azido-3′-deoxythymidine] | – | 0 μM^2% | 107 μM^2% | – | −0.88 μM^2% | 180 μM^2% | – | –
